The values that follow come from PMC8861638, “Human iPSC-derived renal organoids engineered to report oxidative stress can predict drug-induced toxicity” (iScience, 2022).

Data set [1] deals with HO1-mCherry-hiPSC-derived flat renal organoids. In words: Blind-coded screen, mCherry fluorescence of HMOX1 reporter in flat organoids. Here is the method:
(§1) H O 1-mCherry-hiPSC renal organoids (both flat and 3D) were incubated in a 4-fold dilution series of each compound for either 24 h or 72 h. Data on reporter expression are shown graphically in Figure 5.
(§2) A four-fold dilution series of each blinded compound (lyophilized, obtained from the Gothenburg authors) was prepared and HO1-mCherry-hiPSC-derived renal organoids (flat and 3D) were incubated in these dilutions for either 24h or 72h (Figure 5). A no-treatment control was included for each compound, time-point and organoid type (flat or 3D). 24h flat organoids were cultured in 4 x wells of a 24-well plate; 72h flat organoids in wells of a 96-well plate and 3D organoids on transwell inserts.
(§3) Fluorescence measurements were taken after 24h or 72h. Each live organoid was imaged either 5 times with 4 replicates (flat organoids, 24h), once with 10 replicates (flat organoids, 72h), once with 3 replicates (3D organoids, 24h) or 3 times with 3 replicates (3D organoids, 72h). Organoids were imaged using a Zeiss Axiovert microscope with Axiovision software. All images used for fluorescence intensity analysis were taken with identical exposures and settings. All images were analysed using ImageJ. The total fluorescence intensity of the image was multiplied by the total area with a signal between 600 (lower threshold) and 4096 (higher threshold), where 0 is completely black and 4096 is completely white. Thus, only signal above a certain threshold is measured in order to discount very dark areas with no cells.
(§4) In graphs, a single star indicates a p value of the null hypothesis being true of less than 0.05, two stars a p value of less than 0.01 and 3 stars a p value of less than 0.001. Calculation of the overall performance of the assay (in the Discussion section) was performed by calculating the Wilson Score Interval method ([Newcombe, 1998]).

In data set [2] the test system is HO1-mCherry-hiPSC-derived 3D renal organoids. In words: Blind-coded screen, mCherry fluorescence of HMOX1 reporter in 3D organoids. The procedure: as §1, §2, §3, §4
Data set [3] has as its system flat and 3D HO1-mCherry-hiPSC-derived organoids. Description: HMOX1 qPCR in the blind-coded screen, flat and 3D organoids, 24h. The data set is classed as cell-based, human. Particulars: highest concentration 384µM. The procedure: A one-way ANOVA on repeated measures was performed. […]
mCherry insertion without hydrogen peroxide treatment. B) Single mCherry-positive cells were sorted into each well of 96-well plates as shown in the right panel to isolate clonal populations. Negative (wild type) cells are shown in the left panel. C) Diagram of the primers designed for verifying cassette insertion into the hiPSC genome. D) PCR products using primer pair 1 and 4 shown in C) - endogenous […]
Figure S5. HMOX1 expression in flat and 3D HO1-mCherry-hiPSC-derived flat and 3D organoids by qPCR fold-change analysis, Related to Figure 6.
HMOX1 expression fold-change compared to vehicle control in flat (white) and 3D […]

For data set [4], the system named is hiPSC-derived renal organoids. It is filed as cell-based, human. The source says:
We also stained drug-treated organoids for HMOX1 together with LTL and COL IV (Figure S3A), or JAG1 (Figure S3B), to test whether the response is localized to a specific cell type in the organoid. […] The general increase in HMOX1 expression in response to the toxic drugs, rather than specific response in proximal tubular cells, the primary site of toxicity of both drugs, could be due to the availability of the drug to all cell types of the organoid through the media in contrast to what happens in vivo where these drugs filter through the glomeruli then specifically accumulate inside the proximal tubular cells, through apical uptake pathways, where most of their toxic effect is seen.
The culture medium was aspirated, cells washed once in PBS, then fixed in 4% PFA in PBS for 15 minutes at room temperature, followed by three PBS washes of 3 min each. Cells were permeabilised and blocked for 1 hour (2% BSA, 0.3% Triton x100 in PBS). Cells were washed in PBS and incubated with primary antibodies overnight at 4 °C. Cells were washed in PBS (3x, 15 min) and incubated with secondary antibodies for 2 hrs at room temperature. Cells were washed in PBS (3x, 15 minutes) before imaging in PBS in the wells. Images were taken using a Zeiss Axiovert fluorescence microscope. […]

The subject of data set [5] is hiPSC-derived flat renal organoids. Description: RNA-seq of wild-type hiPSC-derived flat renal organoids treated with gentamicin for 24 h. The data set is classed as cell-based, human. The source says:
Although some transporters were more strongly expressed in the 3D organoids, the presence of Megalin and Cubulin in the flat organoids, combined with their increased suitability for high-throughput analyses, led us to adopt this form of organoid to identify a potential reporter for toxic insults in renal organoids. hiPSCs were differentiated into flat renal organoids, and their renal identity was verified by confirming expression of common renal markers (as described above and in the Methods section). We treated these flat renal organoids for 24 h with the known nephrotoxicant, gentamicin ([Regec et al., 1986], [1989]; [El Mouedden et al., 2000]), at 1 or 4 mg/mL, leaving some as vehicle-only controls (3 separate organoids per condition). Gentamicin was chosen based on the presence of Megalin and Cubulin in these organoids because they are the main endocytic receptors involved in gentamicin uptake into proximal tubule cells ([Schmitz et al., 2002]) and would be expected to be necessary for a realistic toxic response. The transcriptomes of renal organoids in these three conditions were compared using RNA-seq analyses.
In contrast, treatment with 4 mg/mL gentamicin caused the expression of 2,221 genes to increase and that of 1770 to decrease. Among the transcripts showing increased expression was KIM-1 (log fold-change: 1.67; FDR-corrected p = 0.03), a biomarker commonly associated with renal tubular necrosis (Table S1).
RNA-seq, and trimming, filtering and normalization of raw data, was performed by Edinburgh Genomics. 1 μg of total RNA/sample was used for sequencing library preparation using an Illumina TruSeq stranded mRNA kit. Sequencing was performed using a Novaseq S1 50 Paired-end run to produce 50–64 million read-pairs per sample. Reads were trimmed using Cutadapt and were aligned to the Homo sapiens reference genome (GRCh38; from Ensembl) using STAR. […] Reads were assigned to features of type ‘exon’ in the input annotation grouped by gene_id in the reference genome using Feature Counts. […] Reads were normalised using the weighted trimmed mean of M-values method. […]

In data set [6] the test system is HO1-mCherry-hiPSC-derived flat renal organoids. Description: Verification of reporter response in flat organoids to known nephrotoxicants (fluorescence, qPCR). It is filed as cell-based, human. The settings on record: increasing amounts of compound.
Protocol: Total RNA was isolated from organoids using the Qiagen RNeasy mini kit. Flat organoids were dissociated and processed as per the kit protocol. 3D organoids were lysed using the lysis buffer provided in the kit and then passed through a needle to fully dissociate before continuing with the kit protocol. RNA was stored at −80 °C until use. cDNA for qPCR was prepared using 2μg RNA and cDNA for RT-PCR was prepared using 1μg of RNA. All cDNA was quality-controlled by PCR using intron-spanning primers for β-actin on cDNA, prepared with or without reverse transcriptase (primers in Table S4). RT-PCRs for OAT1 (SLC22A6) and OCT2 (SLC22A2) were carried out in multiplex reactions with primers for β-actin as loading controls (primers in Table S4). qPCRs on undifferentiated and flat organoids for HMOX1 with HPRT1 as internal control were performed using TaqMan reagents as per published protocols (Applied Biosystems, assay nos. in Table S4). For qPCRs in the blind-coded screen, quality-controlled cDNA was provided by the Edinburgh authors to the Gothenburg authors. […] The reaction was prepared via Beckman NX and measured on Applied Biosystems QuantStudio 7 Real-Time PCR System.Technical triplicates served to calculate CT mean for each gene. The ΔCT between the target gene and the mean CT of the two reference genes was calculated for each biological replicate. […]
Data set [7] deals with undifferentiated HO1-mCherry-hiPSCs. The settings on record: 0, 125, or 250 μM for 24 h.
Protocol: RNA was stored at −80 °C until use. cDNA for qPCR was prepared using 2μg RNA and cDNA for RT-PCR was prepared using 1μg of RNA. […] 12 ng of cDNA was utilized for each qPCR reaction. TaqMan gene expression assays (Applied Biosystems, TaqMan Gene Expression FAST Master Mix) were performed on HMOX1 and house-keeping genes HPRT and RPLP0. The reaction was prepared via Beckman NX and measured on Applied Biosystems QuantStudio 7 Real-Time PCR System.Technical triplicates served to calculate CT mean for each gene. The ΔCT between the target gene and the mean CT of the two reference genes was calculated for each biological replicate. The mean ΔCT of biological triplicates was normalized to untreated sample resulting in 2^ΔΔCT. […] A one-way ANOVA on repeated measures was performed. Significant fold-change was established by Dunnett's multiple comparisons test.
[8] abbreviates: flat organoids, 24 h and 72 h, 4-fold dilution series.
[9] abbreviates: 3D organoids, 24 h and 72 h, 4-fold dilution series.

Where “and” joins values, the source holds several entries; their conditions need not be identical. Identical values can stand only once. Like-named read-outs stand apart in the source and are kept apart here.

Take `Nc1ccn(C[C@@H](CO)OCP(=O)(O)O)c(=O)n1` [Cidofovir]: the “Prediction of toxicity by increase in fluorescence intensity” value (shortened to “Prediction of toxicity by increase”) in data set [1] (Flat 24h) is reported as “N”; in data set [1] (Flat 72h), “Y”; in data set [2] (3D 24h) it was “Y”; in data set [2] (3D 72h), “N”. Besides, the “Reporter fluorescence response compared to vehicle control” value in data set [1] (flat organoids, 24 h) is listed as “no significant response”; in data set [1] (flat organoids, 72 h) it was “elicited a response at even the lowest concentration tested”; in data set [2] (3D organoids, 24 h), “showed a response after 24 h treatment”; in data set [2] (3D organoids, 72 h) it was “not after 72 h”.

Take `N.N.[Cl][Pt][Cl]` [Cisplatin]: the “Reporter fluorescence response compared to vehicle control” value in data set [1] was “significant increase in fluorescence”. Besides, in data set [2], the “Reporter fluorescence response compared to vehicle control” value is “significant increase in fluorescence” and the “Tubular structure of treated organoids” value was “distinct loss of tubular structure”. Moreover, in data set [3], the “Cell death (no cDNA obtained)” value is “massive cell death”. The “HMOX1 expression by immunostaining” value in data set [4] is “HMOX1 expression increased”.

`C[C@@H]1C[C@H]2[C@@H]3CCC4=CC(=O)C=C[C@]4(C)[C@@]3(F)[C@@H](O)C[C@]2(C)[C@@]1(O)C(=O)CO` [Dexamethasone]: the “Prediction of toxicity by increase” value in data set [1] (Flat 24h), in data set [1] (Flat 72h), in data set [2] (3D 24h) and in data set [2] (3D 72h) was “N” throughout. In addition, the “Reporter fluorescence response compared to vehicle control” value in data set [1] (setting [8]) and in data set [2] (setting [9]) was “none of the concentrations produced a signal statistically different” throughout. Further, in data set [2] (3D organoids), the “Prediction of toxicity, combination of 24 and 72 h (Boolean OR)” value was “did not predict toxicity”.

Take `CNC(C)C1CCC(N)C(OC2C(N)CC(N)C(OC3OCC(C)(O)C(NC)C3O)C2O)O1` (stereo not drawn) [Gentamicin]: in data set [5] (4 mg/mL vs control, 24 h), the “Log2FC HMOX1” value was 6.552 and 6.55. Also, in data set [5] (data not shown), the “Expression of CLU in RNA-seq” value is reported as “not up-regulated” and the “Expression of NGAL in RNA-seq” value was “downregulated”. Besides, the “Low concentration to which organoids responded (fluorescence)” value in data set [1] (human, 24 h) is 2 4 μM. In addition, in data set [2], the “Prediction of toxicity by increase” value was “Y” and the “Tubular structure of treated organoids” value is reported as “maintained their tubular structures”. Moreover, in data set [2] (human, 24 h), the “Low concentration to which organoids responded (fluorescence)” value was determined as 6 µM. Further, in data set [6], the “mCherry fluorescence intensity (fold-change relative to vehicle control)” value was “increased in a dose-dependent manner”. Besides, in data set [4] (human), the “HMOX1 expression by immunostaining” value is “HMOX1 expression increased”.

Take `O=P1(NCCCl)OCCCN1CCCl` (stereo not drawn) [Ifosfamide]: the “Prediction of toxicity by increase” value in data set [1] (Flat 24h), in data set [1] (Flat 72h), in data set [2] (3D 24h) and in data set [2] (3D 72h) was “Y” each time. Further, the “Reporter fluorescence response compared to vehicle control” value in data set [1] (setting [8]) and in data set [2] (setting [9]) was “significant fluorescence increase” throughout.

As for `CC(C(=O)O)c1cccc(C(=O)c2ccccc2)c1` (stereo not drawn) [Ketoprofen], the “Prediction of toxicity by increase” value in data set [1] (Flat 24h) is recorded as “Y”; in data set [1] (Flat 72h), “Y”; in data set [2] (3D 24h), “N”; in data set [2] (3D 72h), “N”. Moreover, the “Reporter fluorescence response compared to vehicle control” value in data set [1] (setting [8]) was “significant response in the flat cultures at the two highest concentrations”; in data set [2] (3D organoids, 72 h), “only at the highest concentration after 72 h”.

For `COc1ccc(C[C@H](N)C(=O)N[C@H]2[C@@H](O)[C@H](n3cnc4c(N(C)C)ncnc43)O[C@@H]2CO)cc1` [Puromycin], the “Reporter fluorescence response compared to vehicle control” value in data set [1] (human) is “significant rise in fluorescence after both 24 and 72 h”; in data set [2] (human), “significant rise in fluorescence after both 24 and 72 h”.

Consider `OO` [hydrogen peroxide], for which, in data set [7], the “HMOX1 transcripts by qPCR” value is listed as “increase in HMOX1 transcripts” and the mCherry fluorescence entry was “increased in a dose-dependent manner”.
